Holding throughout (format): cell-based
The target of assay [1] is T1, 5-HT2A receptor (Homo sapiens, UniProt P28223).
T1 construct: expressed in transfected cells; host or cells: NIH3T3 cells, pSI mammalian expression vector
The experiment in a line: R-SAT functional receptor assay, inverse agonist activity at 5-HT2A. As for the experimental part: (§1) Receptor Selection and Amplification (R-SAT®) Assays. The functional receptor assay, Receptor Selection and Amplification Technology (R-SAT®), was used (with minor modifications from the procedure described previously (Brann, M. R. U.S. Pat. No. 5,707,798, 1998; Chem. Abstr. 1998, 128, 111548) to screen compounds for efficacy at the 5-HT2A receptor. Briefly, NIH3T3 cells were grown in 96 well tissue culture plates to 70-80% confluence. Cells were transfected for 12-16 h with plasmid DNAs using superfect (Qiagen Inc.) as per manufacturer's protocols. R-SAT's were generally performed with 50 ng/well of receptor and 20 ng/well of β-galactosidase plasmid DNA. All receptor and G-protein constructs used were in the pSI mammalian expression vector (Promega Inc) as described previously. The 5-HT2A or 5-HT2C receptor gene was amplified by nested PCR from brain cDNA using the oligodeoxynucleotides based on the published sequence (Saltzman et. al, Biochem. Biophys. Res. Comm. 1991, 181, 1469). For large-scale transfections, cells were transfected for 12-16 h, then trypsinized and frozen in DMSO. Frozen cells were later thawed, plated at 10,000-40,000 cells per well of a 96 well plate that contained drug. With both methods, cells were then grown in a humidified atmosphere with 5% ambient CO2 for five days. Media was then removed from the plates and marker gene activity was measured by the addition of the β-galactosidase substrate o-nitrophenyl β-D-galactopyranoside (ONPG, in PBS with 5% NP-40). The resulting colorimetric reaction was measured in a spectrophotometric plate reader (Titertek Inc.) at […]. All data were analyzed using the computer program XLFit (IDBSm). Efficacy is the percent maximal repression compared to repression by a control compound (ritanserin in the case of 5-HT2A). pIC50 is the negative of the log(IC50), where IC50 is the calculated concentration in Molar that produces 50% maximal repression. Various metabolites of N-(1-methylpiperidin-4-yl)-N-(4-fluorophenylmethyl)-N′-(4-(2-methylpropyloxy)phenylmethyl) carbamide, including the compounds of Formulae (I), (II), (III), (IV) and (V) as well as other metabolites, were assayed as described herein.

Assay [2] has as its target T2, 5-HT2C receptor (Homo sapiens, UniProt P28335).
T2 construct: expressed in transfected cells; host or cells: NIH3T3 cells, pSI mammalian expression vector
T2 sequence (P28335 33-458): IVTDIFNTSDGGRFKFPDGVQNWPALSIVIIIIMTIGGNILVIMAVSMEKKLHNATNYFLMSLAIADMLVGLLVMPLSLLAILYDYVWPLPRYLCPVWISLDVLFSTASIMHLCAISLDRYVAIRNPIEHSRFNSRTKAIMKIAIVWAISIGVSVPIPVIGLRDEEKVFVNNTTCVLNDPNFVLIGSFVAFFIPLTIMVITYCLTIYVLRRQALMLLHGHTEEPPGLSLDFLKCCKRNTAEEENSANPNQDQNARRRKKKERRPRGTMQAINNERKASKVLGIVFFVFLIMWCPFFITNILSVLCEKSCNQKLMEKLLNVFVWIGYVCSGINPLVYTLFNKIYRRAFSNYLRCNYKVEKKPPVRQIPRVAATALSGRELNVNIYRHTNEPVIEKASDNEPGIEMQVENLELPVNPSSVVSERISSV
The experiment in a line: R-SAT functional receptor assay, inverse agonist activity at 5-HT2C. How it is done: as §1, with “Various metabolites of N-(1-methylpiperidin-4-yl)-N-(4-fluorophenylmethyl)-N′-(4-(2-methylpropyloxy)phenylmethyl) carbamide, including the compounds of Formulae (I), (II), (III), (IV) and (V) as well as other metabolites, were assayed as described herein.” left out

In assay [3] the target is T1, 5-HT2A receptor. The experiment in a line: R-SAT functional receptor assay, antagonist activity at 5-HT2A. How it is done:
as §1

The target in assay [4] is T2, 5-HT2C receptor. In words: R-SAT functional receptor assay, antagonist activity at 5-HT2C. How it is done:
as §1

Where a name gives a salt, the structure may show the parent alone.

T1 sequence (P28223 whole entry): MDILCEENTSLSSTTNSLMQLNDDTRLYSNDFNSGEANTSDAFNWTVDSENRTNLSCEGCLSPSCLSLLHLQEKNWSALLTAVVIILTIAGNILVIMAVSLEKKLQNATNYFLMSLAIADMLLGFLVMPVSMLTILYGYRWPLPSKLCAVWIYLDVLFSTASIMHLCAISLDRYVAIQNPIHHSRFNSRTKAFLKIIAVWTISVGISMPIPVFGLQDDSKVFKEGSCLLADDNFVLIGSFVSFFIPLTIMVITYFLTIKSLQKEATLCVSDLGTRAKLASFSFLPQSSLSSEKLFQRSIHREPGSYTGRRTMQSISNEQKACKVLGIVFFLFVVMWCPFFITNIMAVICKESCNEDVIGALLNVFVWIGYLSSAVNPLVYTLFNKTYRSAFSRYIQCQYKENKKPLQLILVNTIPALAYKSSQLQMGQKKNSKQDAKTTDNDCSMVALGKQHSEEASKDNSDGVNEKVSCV

What is called IC50 is the concentration that inhibits the measured activity by half. Low values mean higher potency, high ones lower potency. A word on the Ki: it is the equilibrium dissociation constant of an inhibitor or competing ligand from its target. Read a high Ki as lower affinity. Take `CN1CCC(N(Cc2ccc(F)cc2)C(=O)NCc2ccc(OCC(C)(C)O)cc2)CC1` [Formula (III), N-(4-Fluorobenzyl)-N-(1-methylpiperidin-4-yl)-N′-[4-(2-hydroxy)isobutoxybenzyl]carbamide Hydrochloride]: the figures for the half-maximal inhibitory concentration (IC50) in assay [1] and in assay [2] were 0.002 µM and 0.794 µM, respectively. For the same compound, the Ki is 0.001 µM in assay [3] and 0.158 µM in assay [4].

For `CN1CCC(N(Cc2ccc(F)cc2)C(=O)NCc2ccc(O)cc2)CC1` [Formula (I), N-(4-Fluorobenzyl)-N-(1-methylpiperidin-4-yl)-N′-(4-hydroxybenzyl)carbamide Hydrochloride], the IC50 in assay [1] is 0.0316 µM. In addition, the Ki in assay [3] is 0.0126 µM; in assay [4] it was 0.316 µM.

As to `C[C@H](CO)COc1ccc(CNC(=O)N(Cc2ccc(F)cc2)C2CCN(C)CC2)cc1` [Formula (IV), N-(4-Fluorobenzyl)-N-(1-methyl-piperidin-4-yl)-N′-(4-(R)-[(3-hydroxy)-isobutoxy]benzyl)carbamide], the IC50 in assay [1] is 0.00316 µM; in assay [2], 0.2 µM. This compound also showed a Ki in assay [4] of 0.158 µM.

In turn, `CC(C)COc1ccc(CNC(=O)N(Cc2ccc(F)cc2)C2CCNCC2)cc1` [Formula (II), N-(4-Fluorobenzyl)-N-(piperidin-4-yl)-N′-(4-isobutoxybenzyl)carbamide Hydrochloride] gave an IC50 in assay [1] of 0.00251 µM. The Ki in assay [3] is 0.00126 µM; in assay [4], 0.1 µM.

On to `CC(C)COc1ccc(CNC(=O)N(Cc2ccc(F)cc2)C2CC[N+](C)([O-])CC2)cc1` (centres unmarked) [Formula (V), N-(4-Fluorobenzyl)-N-(1-methyl-1-oxopiperidin-4-yl)-N′-(4-isobutoxybenzyl)carbamide], for which the half-maximal inhibitory concentration (IC50) was 0.0316 µM in assay [1] and 2 µM in assay [2]. The Ki in assay [3] is 0.0316 µM; in assay [4], 0.398 µM.

The values are drawn from US20090082342A1, “N-SUBSTITUTED PIPERIDINE DERIVATIVES AS SEROTONIN RECEPTOR AGENTS” (Acadia Pharmaceuticals, Inc., priority 2007, published 2009).
